“And” between values parts separate entries of the source, which are not always exact repeats. Identical values can stand only once. Inconclusive results and toxic doses are left out.
Tested on: L1210 leukemia ip in BDF1 mice, survival T/C
Assay: NCI In Vivo Anticancer Drug Screen. Data for tumor model L1210 Leukemia (intraperitoneal) in B6D2F1 (BDF1) mice
Conditions: endpoint: mean survival time, higher = longer survival
Method in brief: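 Value reflects the ratio of survival in compound-treated mice to survival in vehicle-treated controls, with both groups carrying the same transplanted tumor.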

[1] = dose: 100.0 mg/kg/injection, schedule: Q01DX001 (ip), vehicle: saline
[2] = dose: 100.0 mg/kg/injection, schedule: Q04DX002 (ip), vehicle: Klucel (hydroxypropylcellulose) (HPC)
[3] = dose: 200.0 mg/kg/injection, schedule: Q04DX002 (ip), vehicle: Klucel (hydroxypropylcellulose) (HPC)
[4] = dose: 400.0 mg/kg/injection, schedule: Q04DX002 (ip), vehicle: Klucel (hydroxypropylcellulose) (HPC)
[5] = dose: 100.0 mg/kg/injection, schedule: Q04DX002 (ip), vehicle: saline with Tween-80
[6] = dose: 200.0 mg/kg/injection, schedule: Q04DX002 (ip), vehicle: saline with Tween-80
[7] = dose: 400.0 mg/kg/injection, schedule: Q04DX002 (ip), vehicle: saline with Tween-80
[8] = dose: 100.0 mg/kg/injection, schedule: Q04DX003 (ip), vehicle: Klucel (hydroxypropylcellulose) (HPC)
[9] = dose: 200.0 mg/kg/injection, schedule: Q04DX003 (ip), vehicle: Klucel (hydroxypropylcellulose) (HPC)
[10] = dose: 400.0 mg/kg/injection, schedule: Q04DX003 (ip), vehicle: Klucel (hydroxypropylcellulose) (HPC)

CC1=CCCC2(CCC3(C)CC32)C1(C)C (stereo not given)
T/C (dose: 100.0 mg/kg/injection, schedule: Q01DX009 (ip), vehicle: acetone): 89 % of control
T/C (dose: 200.0 mg/kg/injection, schedule: Q01DX009 (ip), vehicle: acetone): 95 % of control

CC1(C)OC2OC(CO)C(O)C(O)C2O1 (stereo not given)
T/C (dose: 100.0 mg/kg/injection, schedule: Q04DX002 (ip), vehicle: saline): 94 % of control
T/C (dose: 200.0 mg/kg/injection, schedule: Q04DX002 (ip), vehicle: saline): 94 % of control
T/C (dose: 400.0 mg/kg/injection, schedule: Q04DX002 (ip), vehicle: saline): 94 % of control

C1OC1CN1CCN(CC2CO2)CC1 (stereo not given)
T/C (dose: 1.2 mg/kg/injection, schedule: Q01DX009 (ip), vehicle: saline): 101 % of control
T/C (dose: 1.8 mg/kg/injection, schedule: Q01DX009 (ip), vehicle: saline): 117 % of control
T/C (dose: 2.0 mg/kg/injection, schedule: Q03HX008 (ip), vehicle: saline): 117 % of control
T/C (dose: 2.0 mg/kg/injection, schedule: Q03HX016 (ip), vehicle: saline): 102 % of control
T/C (dose: 2.0 mg/kg/injection, schedule: Q03HX024 (ip), vehicle: saline): 121 % of control
T/C (dose: 3.5 mg/kg/injection, schedule: Q01DX009 (ip), vehicle: saline): 118 % of control
T/C (dose: 4.0 mg/kg/injection, schedule: Q03HX008 (ip), vehicle: saline): 114 % of control
T/C (dose: 4.0 mg/kg/injection, schedule: Q03HX016 (ip), vehicle: saline): 114 % of control
T/C (dose: 6.25 mg/kg/injection, schedule: Q01DX009 (ip), vehicle: saline): 121 % of control
T/C (dose: 8.0 mg/kg/injection, schedule: Q01DX009 (sc), vehicle: saline): 101 % of control
T/C (dose: 8.0 mg/kg/injection, schedule: Q03HX008 (ip), vehicle: saline): 114 % of control
T/C (dose: 8.0 mg/kg/injection, schedule: Q03HX016 (ip), vehicle: saline): 94 % of control
T/C (dose: 12.5 mg/kg/injection, schedule: Q01DX009 (ip), vehicle: saline): 164 % of control
T/C (dose: 15.0 mg/kg/injection, schedule: Q01DX009 (ip), vehicle: saline): 157 % of control
T/C (dose: 16.0 mg/kg/injection, schedule: Q01DX001 (sc), vehicle: saline): 106 % of control
T/C (dose: 16.0 mg/kg/injection, schedule: Q01DX009 (sc), vehicle: saline): 106 % of control
T/C (dose: 30.0 mg/kg/injection, schedule: Q01DX009 (ip), vehicle: saline): 208 % of control
T/C (dose: 32.0 mg/kg/injection, schedule: Q01DX001 (oral), vehicle: saline): 113 % of control
T/C (dose: 32.0 mg/kg/injection, schedule: Q01DX001 (sc), vehicle: saline): 98 % of control
T/C (dose: 32.0 mg/kg/injection, schedule: Q01DX009 (ip), vehicle: saline): 102 % of control
T/C (dose: 32.0 mg/kg/injection, schedule: Q01DX009 (oral), vehicle: saline): 153 % of control
T/C (dose: 32.0 mg/kg/injection, schedule: Q04DX003 (ip), vehicle: saline): 165 % of control
T/C (dose: 50.0 mg/kg/injection, schedule: Q01DX009 (ip), vehicle: saline): 111 % of control
T/C (dose: 60.0 mg/kg/injection, schedule: Q01DX009 (ip), vehicle: saline): 92 % of control
T/C (dose: 64.0 mg/kg/injection, schedule: Q01DX001 (oral), vehicle: saline): 123 % of control
T/C (dose: 64.0 mg/kg/injection, schedule: Q01DX001 (sc), vehicle: saline): 113 % of control
T/C (dose: 64.0 mg/kg/injection, schedule: Q01DX009 (oral), vehicle: saline): 165 % of control
T/C (dose: 64.0 mg/kg/injection, schedule: Q01DX009 (sc), vehicle: saline): 160 % of control
T/C [1]: 176 % of control
T/C (dose: 120.0 mg/kg/injection, schedule: Q01DX001 (ip), vehicle: saline): 182 % of control
T/C (dose: 128.0 mg/kg/injection, schedule: Q01DX001 (sc), vehicle: saline): 116 % of control
T/C (dose: 180.0 mg/kg/injection, schedule: Q01DX001 (ip), vehicle: saline): 168 % of control
T/C (dose: 200.0 mg/kg/injection, schedule: Q01DX001 (ip), vehicle: saline): 90 % of control
T/C (dose: 256.0 mg/kg/injection, schedule: Q01DX001 (sc), vehicle: saline): 151 % of control

Cc1cccc(C)c1N=C=S
T/C (dose: 25.0 mg/kg/injection, schedule: Q04DX003 (ip), vehicle: saline with Tween-80): 100 % of control
T/C (dose: 50.0 mg/kg/injection, schedule: Q04DX003 (ip), vehicle: saline with Tween-80): 96 % of control
T/C (dose: 100.0 mg/kg/injection, schedule: Q04DX003 (ip), vehicle: saline with Tween-80): 98 % of control

Nc1nccnc1C(=O)NOCc1ccccc1
T/C (dose: 25.0 mg/kg/injection, schedule: Q04DX002 (ip), vehicle: Klucel (hydroxypropylcellulose) (HPC)): 90 % of control
T/C (dose: 50.0 mg/kg/injection, schedule: Q04DX002 (ip), vehicle: Klucel (hydroxypropylcellulose) (HPC)): 90 % of control
T/C [2]: 101 % of control and 111 % of control
T/C [3]: 105 % of control
T/C [4]: 96 % of control and 97 % of control

CCOC(=O)COc1c(C(=O)OC)cc([N+](=O)[O-])cc1[N+](=O)[O-]
T/C [5]: 104 % of control
T/C [6]: 97 % of control
T/C [7]: 90 % of control

CCCCCCCCCCCC1CCCC2CCCCC12 (stereo not given)
T/C [5]: 91 % of control
T/C [6]: 91 % of control
T/C [7]: 100 % of control

NC(CC(=O)NCCc1ccccc1)C(=O)NCCc1ccccc1 (stereo not given)
T/C (dose: 75.0 mg/kg/injection, schedule: Q01DX001 (ip), vehicle: other): 102 % of control
T/C (dose: 150.0 mg/kg/injection, schedule: Q01DX001 (ip), vehicle: other): 97 % of control
T/C (dose: 300.0 mg/kg/injection, schedule: Q01DX001 (ip), vehicle: other): 97 % of control

Cc1nc2cc(N=Cc3ccc(N(CCCl)CCCl)cc3Cl)ccc2n1C
T/C [2]: 104 % of control
T/C [3]: 104 % of control
T/C [4]: 104 % of control

Cc1ccc(-c2nc(N)[nH]c(=O)c2CCCN(c2ccccc2)S(=O)(=O)c2ccc(C)cc2)cc1
T/C [8]: 102 % of control
T/C [9]: 101 % of control
T/C [10]: 102 % of control

CC(=O)ONc1nc(C)c(CCC2OCCO2)c(=O)[nH]1
T/C (dose: 100.0 mg/kg/injection, schedule: Q01DX009 (ip), vehicle: Klucel (hydroxypropylcellulose) (HPC)): 95 % of control
T/C [8]: 105 % of control
T/C (dose: 200.0 mg/kg/injection, schedule: Q01DX009 (ip), vehicle: Klucel (hydroxypropylcellulose) (HPC)): 102 % of control
T/C [9]: 105 % of control
T/C (dose: 400.0 mg/kg/injection, schedule: Q01DX009 (ip), vehicle: Klucel (hydroxypropylcellulose) (HPC)): 95 % of control
T/C [10]: 98 % of control

NC1CC=CCC1c1ccc2c(c1)OCO2 (stereo not given)
T/C (dose: 75.0 mg/kg/injection, schedule: Q01DX001 (ip), vehicle: saline): 100 % of control
T/C (dose: 150.0 mg/kg/injection, schedule: Q01DX001 (ip), vehicle: saline): 92 % of control

COc1ccc(/C=C2\CS(=O)(=O)C/C(=C\c3ccc(OC)cc3)C2=O)cc1
T/C [1]: 94 % of control
T/C (dose: 400.0 mg/kg/injection, schedule: Q01DX001 (ip), vehicle: saline): 95 % of control

CC12CCC(O)C(C)(C)C1=C(O)C(=O)C1=C2C(=O)CC2(C)C(=O)CCC12C (stereo not given)
T/C (dose: 100.0 mg/kg/injection, schedule: Q04DX003 (ip), vehicle: saline): 93 % of control
T/C (dose: 200.0 mg/kg/injection, schedule: Q04DX003 (ip), vehicle: saline): 93 % of control
T/C (dose: 400.0 mg/kg/injection, schedule: Q04DX003 (ip), vehicle: saline): 98 % of control

N#CC(C#N)=Cc1ccc(Cl)cc1
T/C (dose: 50.0 mg/kg/injection, schedule: Q01DX001 (ip), vehicle: other): 105 % of control
T/C (dose: 100.0 mg/kg/injection, schedule: Q01DX001 (ip), vehicle: other): 102 % of control
T/C (dose: 200.0 mg/kg/injection, schedule: Q01DX001 (ip), vehicle: other): 113 % of control

COc1cc(C=O)cc(O)c1O
T/C (dose: 62.5 mg/kg/injection, schedule: Q01DX Z (ip), vehicle: saline): 96 % of control
T/C (dose: 500.0 mg/kg/injection, schedule: Q01DX Z (ip), vehicle: saline): 124 % of control
